Structures can show the parent of a compound that is named as a salt.
Experiments:
Assay type in all cases: in vivo
[1] = system: mice with T9 contusion type of injury; assay: Basso Mouse Scale (BMS) open-field locomotion after T9 contusion spinal cord injury
Experimental: Adult female C57BL/6J mice (8-10 weeks-old; Charles River) were used in this study. The mice were housed three to four per cage and were maintained on a 12-hour light/dark cycle with food and water ad libitum for the duration of the study.
(§1) A moderate-severe contusion-type of injury was performed on adult C57BL/6 female mice (10-12 weeks) with an Infinite Horizon Impactor (PSI)^30. All surgeries were performed under aseptic conditions. Briefly, under deep anesthesia with Ketamine and Xylazine (120 mg/kg and 16 mg/kg respectively, i.p.) mice received a dorsal laminectomy at the level of 9th thoracic vertebra (T9). After securing the lateral processes of the 8th thoracic vertebra (T8) and 10th thoracic vertebra (T10) with a stainless-steel impactor tip, a controlled force-defined impact at 75 kdyne was delivered to the exposed spinal cord^28,30. Then, muscle and skin were closed with 4.0 polyglycolic acid (PGA) absorbable sutures (Safil, G1048213). In this study, mice were excluded when the actual displacement value was outside the interval 500-700 μm or if the actual force after impact was >2SD 75 Kdyne. Immediately after injury, mice were injected subcutaneously with 0.5 ml of sterile saline and then daily for 5 days. During this experiment, mice underwent gentle bladder expression twice daily until they were voiding on their own. Weight was monitored daily until 15 days-post-injury (dpi) and then weekly for the duration of the study and a high caloric pellet (Supreme Mini-Treats™ S05478 and S05472) was provided as a dietary supplement since a 10% weight loss was typically observed in this SCI model upon injury.
The Eletriptan Hbr (Sigma-Aldrich, PZ0011) dosage used were equivalent to the human market dose^31 and all treatment dosages were aliquoted using a coded system to maintain double-blinded measures. This code was only unveiled at the end of all behavioural tests. Mice were randomly distributed to each experimental group (SCI+Vehicle and SCI+Eletriptan Hbr). Vehicle and Eletriptan Hbr were administered via intraperitoneal injection (i.p.), beginning 1 hour after injury (hpi) and then daily until 15 dpi.
Open-field locomotion was assessed with the BMS rating system^30,32. The open-field used was a round platform with 85 cm in diameter and 30.5 cm high, located in a quiet testing room with normal lighting. The mice were habituated to the testing platform for 5 minutes daily for 2 weeks before surgery. The BMS testing (BMS scoring and subscoring) was performed as previously described^28,30. Briefly, mice were tested before surgery, to obtain baseline pre-operation locomotion values, where it is expected a maximum S score value. To determine the functional recovery after treatment the BMS score of each mouse was evaluated at 1, 3, 7, 14 dpi and then weekly until the end of the experiments. The evaluation of BMS score and subscore was always performed by two raters who were blind to the treatment groups and scored hindlimb locomotion for 4 minutes per mouse. If the scores differed between raters, the final score taken was the average of both scores.
To validate the therapeutic effect of Eletriptan Hbr for SCI indication in a non-regenerative model, it was decided to test its efficacy in a SCI rodent model. Therefore, a contusion type of injury was performed in C57BL/6 female mice, using an Infinite Horizon (IH) Impactor and the Basso Mouse Scale (BMS) test^32 was used to evaluate the locomotor performance of the animals after injury. First, mice were habituated to the open-field platform and after 15 days they were injured with a moderate-severe T9 contusion (75 kdyne) (FIG. 2A). Immediately after injury and upon biomechanical exclusion criteria, mice were randomly distributed to each experimental group (SCI+Vehicle and SCI+Eletriptan Hbr). Treatment dosages (Vehicle or Eletriptan Hbr) were administered via intraperitoneal (i.p.) injection, beginning 1 hour-post-injury (1hpi), and then daily until 15 dpi (FIG. 2A). […]

[2] = system: mice with T9 contusion type of injury; assay: activated microglia quantification and morphology (P2Y12 / F4/80 immunohistochemistry); details: 42 dpi; for number of P2Y12+ F4/80+ (activated microglia) cells: vs Vehicle
Experimental: as §1, with “injury. […]” for “injury.”
For immunohistochemistry in sections, OCT was removed from the cryosections using PBS (30 minutes). […] For activated microglia quantification, sections were counterstained with DAPI. […]
To quantify the activated microglia one set of spinal cord sections were stained with anti-P2Y12 (a microglia specific marker) and anti-F4/80 (a pan macrophage marker) and counterstained with […] DAPI. Z-stack compositions were acquired in a motorized inverted widefield fluorescence microscope (Zeiss Cell Observer, Carl Zeiss MicroImaging) with 20× magnification. […]

[3] = system: mice with T9 contusion type of injury; assay: bladder function score during manual bladder expression after T9 contusion SCI; details: vs Vehicle
Experimental: as §1, with “During this experiment, mice underwent gentle bladder expression twice daily until they were voiding on their own.” left out, “injury. […]” for “injury.”
Additionally, we also evaluated the bladder dysfunction status, which is a common effect seen after a SCI^3,37. […]

CN1CCC[C@@H]1Cc1c[nH]c2ccc(CCS(=O)(=O)c3ccccc3)cc12 [Eletriptan Hbr, Eletriptan Hydrobromide]
animals that acquired a mild trunk stability ([1]; 42 dpi): 46% | mice with frequent plantar stepping with parallel placement of both hindlimb paws at initial contact ([1]; 42 dpi): 85% | mice with parallel placement of at least one of the hindlimb paws at lift off ([1]; 42 dpi): 23% | events that block the walking movement such as spasms and but downs ([1]; 42 dpi, observed during BMS testing, vs Vehicle): less events | mice that achieved a BMS score of 5 (frequent or consistent plantar stepping) ([1]; 42 dpi, of thirteen treated mice): twelve | mice that achieved a BMS score of 6 (frequent plantar stepping with some fore-hindlimb coordination) ([1]; 42 dpi, thirteen treated mice): one out of thirteen | average BMS subscores compared to Vehicle-treated mice ([1]; from 7 to 42 dpi): consistently higher | average BMS subscores compared to Vehicle-treated mice ([1]; from 35 dpi to 42 dpi): significantly higher | time at which average BMS scores reached a plateau ([1]; i.p. from 1 hpi, daily until 15 dpi): 28-35 dpi | BMS scores over time compared to Vehicle-treated mice ([1]; i.p. from 1 hpi, daily until 15 dpi, 1 to 42 dpi): consistently but not significantly higher | number of P2Y12+ F4/80+ (activated microglia) cells [2]: no statistically significant differences | number of P2Y12+ F4/80+ (activated microglia) cells ([2]; at 400 μm rostrally and caudally to the epicentre): consistently higher | P2Y12+ microglia morphology ([2]; sections near or at the epicentre, feature not observed in Vehicle-treated mice): longer, ramified processes were also observed | volumes of retained urine (bladder score 0 to 3) ([3]; 1 dpi): statistically significant smaller volumes of retained urine | volumes of retained urine (bladder score 0 to 3) ([3]; after 1 dpi until the end of the study): no differences between experimental groups

Source: patent US12605362B2, “Eletriptan hydrobromide for treatment of spinal cord injury and improvement of locomotor function” (TECHNOPHAGE, INVESTIGAÇÃO E DESENVOLVIMENTO EM …, priority 2020, dated 2026)
